Paper PMC6028453, “BrlR from Pseudomonas aeruginosa is a receptor for both cyclic di-GMP and pyocyanin” (Nature Communications, 2018)
Values joined by “and” are separate entries in the source; they are usually repeats but may differ in a detail not shown here. Identical values can stand only once.

Legend:
brlR [1] = test system: brlR; parameters: method as in PMID 16879411; settings: addition of pyocyanin to P. aeruginosa PA14 strain; cited from earlier work
ΔbrlR cells = experiment: Planktonic antibiotic susceptibility testing, ΔbrlR; type: cell-based, Pseudomonas aeruginosa; settings: 50 μg/ml tobramycin 1 h, 0.2 mM pyocyanin
Procedure: To determine the role of pyocyanin in antimicrobial susceptibility, P. aeruginosa strains (Supplementary Table 2) were grown at 37 °C in 20-fold diluted LB medium supplemented with or without 0.2 mM pyocyanin, which was purified from stationary phase cultures of PAO1. Tobramycin was added to the mid-log phase (OD600 = 0.8) cells suspension to a final concentration of 50 μg/ml; after 1 h, the broth was serially diluted and spread-printed onto LB agar (medium containing 300 μg/ml carbenicillin was used for the cells harboring plasmid) to determine the cell viability via CFU counts. The cell suspensions without tobramycin were set as controls. Susceptibility is expressed as a logarithmic reduction in CFU amount. The data were analyzed with a one-tailed t-test (***P ≤ 0.001).

BrlR Y183A DNA binding = target: T1, BrlR Y183A DNA binding (Pseudomonas aeruginosa, UniProt Q9HUT5, Y183A); experiment: EMSA, BrlR Y183A with PbrlR; type: biochemical
T1 construct: His6-SUMO (N, cleaved yes); made in house; host or cells: E. coli BL21 DE3
T1 sequence (Q9HUT5 whole entry Y183A): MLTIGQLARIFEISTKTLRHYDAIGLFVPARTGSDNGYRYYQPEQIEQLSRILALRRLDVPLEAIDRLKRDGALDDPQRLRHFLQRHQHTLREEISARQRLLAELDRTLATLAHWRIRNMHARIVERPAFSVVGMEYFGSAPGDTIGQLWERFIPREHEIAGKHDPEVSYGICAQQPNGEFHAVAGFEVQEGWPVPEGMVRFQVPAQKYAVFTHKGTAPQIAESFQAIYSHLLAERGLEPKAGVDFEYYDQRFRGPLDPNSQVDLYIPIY
Procedure: (§1) It is unlikely that the larger drug molecules located in the canonical binding pocket can slide into the pyocyanin binding site and promote BrlR-DNA binding, as reflected by the EMSA results for tobramycin (Fig. 6a). To further verify the amino acid residues contributing to pyocyanin binding, many BrlR mutants were constructed. Whereas mutant E247A was insoluble, mutant F253R was not expressed, and mutant C173W was unstable. The binding affinity of Y183A and Y249A for pyocyanin were evaluated by using EMSA with a 36-bp PbrlR.
(§2) A 6-carboxy-fluorescein (FAM)-labeled 36-bp brlR promoter DNA (PbrlR) or 80-bp mexA/mexE promoter DNA (PmexA/PmexE) probes (~0.375 pmol), BrlR protein and varying amounts of inducers were incubated in binding buffer (10 mM Tris HCl [pH 7.4], 50 mM KCl, 1 mM DTT, […] and 5 ng/mL poly [dI-dC]) for 60 min at 25 °C. Finally, glycerol was added to a concentration of 6.5%. The samples were subjected to a 5% polyacrylamide gel electrophoresis and run in 0.5 × Tris-borate-EDTA buffer at 80 V for 1 h at room temperature. Imaging and data analyses were performed using a Typhoon Scanner (GE Healthcare) and Imagequant software. The probes used are listed in Supplementary Table 1.

brlR transcription = experiment: qRT-PCR of brlR transcript; type: cell-based, P. aeruginosa PAO1
Procedure: PAO1 WT strains were grown under different conditions. For c-di-GMP effects, overexpression of PA4843 in PAO1 (PAO1/pHERD20T-PA4843) relative to WT cells (PAO1/ pHERD20T) was determined. When P. aeruginosa strains entered mid-log phase, arabinose was added to induce gene expression. To test pyocyanin’s effect, a P. aeruginosa PAO1 WT strain cells with high pyocyanin production was determined relative to a ΔphzA1-G1/phzA2-G2 strain not producing phenazine and a ΔphzMSH strain not producing pyocyanin.
Total RNA was extracted using a MiniBEST Universal RNA Extraction Kit (TaKaRa) and cDNA synthesis was performed using a PrimeScript RT reagent Kit (TaKaRa). Primers for RT-PCR listed in Supplementary Table 1 were designed using the program PrimerExpress (Applied Biosystems). The RT-PCR reactions were performed on a CFX96 Real-Time PCR Detection System (Bio-Rad) using SYBR Premix Ex Taq™ (TaKaRa). Expression of the target genes was normalized to the expression of 16 S RNA. The relative transcript abundance was calculated according to the 2^−ΔΔCt method. Five biological replicates were performed per sample. The data were analyzed with a one-tailed t-test (***P ≤ 0.001).

BrlR [2] = target: T2, BrlR (Pseudomonas aeruginosa, UniProt Q9HUT5); experiment: Surface plasmon resonance (SPR) analysis; type: binding
T2 construct: His6-SUMO (N, cleaved yes); made in house; host or cells: E. coli BL21 DE3
T2 sequence (Q9HUT5 whole entry): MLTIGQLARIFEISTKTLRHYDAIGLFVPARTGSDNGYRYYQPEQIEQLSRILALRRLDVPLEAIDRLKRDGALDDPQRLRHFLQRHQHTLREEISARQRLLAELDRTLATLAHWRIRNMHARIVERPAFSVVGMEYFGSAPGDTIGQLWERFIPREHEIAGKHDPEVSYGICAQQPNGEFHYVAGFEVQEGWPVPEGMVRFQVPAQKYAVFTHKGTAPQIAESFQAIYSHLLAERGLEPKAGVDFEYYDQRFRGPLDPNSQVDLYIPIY
Procedure: The binding affinity of diverse toxic compounds for BrlR were investigated by SPR using a BIAcore-T200 apparatus (GE Healthcare). The ligand, BrlR (20 μM in 10 mM sodium acetate, pH 4.5), was immobilized on an activated CM5 sensor chip by amine coupling (BIAcore) with 4400 response units (RU), and the unreacted sites were blocked with 1.0 M ethanolamine–HCl (pH 8.5). Steady-state binding analysis was performed with injections of different molecules at different concentrations over the immobilized BrlR surface at a flow rate of 20 μL min^−1 at 25 °C. Association was measured for 180 s, followed by 120 s of dissociation in running buffer (20 mM Hepes pH 7.5, 150 mM NaCl). The sensorgrams for specific interactions were obtained by subtracting the reference unimmobilized flow cell response from that of the sample. Since BrlR only has one binding site for pyocyanin or other toxic compounds (Fig. 5a–f), the kinetic analysis of the sensorgrams from analyte interaction with the immobilized BrlR was performed by fitting the binding curves to a 1:1 binding model. To determine the steady state KD values, equilibrium responses were plotted against analyte concentrations, and the resulting curves were fitted to the steady state model in the BIAevaluation software package, version 3.0 (GE Healthcare).

[3] = target: T3, BrlR binding to PmexA and PmexE (Pseudomonas aeruginosa, UniProt Q9HUT5); experiment: EMSA, BrlR with PmexA and PmexE; type: biochemical; settings: increasing concentrations of pyocyanin
T3 construct: His6-SUMO (N, cleaved yes); made in house; host or cells: E. coli BL21 DE3
T3 sequence (Q9HUT5 whole entry): as above
Procedure: as §2

BrlR-DNA binding (PbrlR) = target: T4, BrlR-DNA binding (PbrlR) (Pseudomonas aeruginosa, UniProt Q9HUT5); experiment: EMSA, wild-type BrlR with PbrlR DNA; type: biochemical
T4 construct: His6-SUMO (N, cleaved yes); made in house; host or cells: E. coli BL21 DE3
T4 sequence (Q9HUT5 whole entry): as above
Procedure: as §2

BrlR Y249A DNA binding = target: T5, BrlR Y249A DNA binding (Pseudomonas aeruginosa, UniProt Q9HUT5, Y249A); experiment: EMSA, BrlR Y249A with PbrlR; type: biochemical
T5 construct: His6-SUMO (N, cleaved yes); made in house; host or cells: E. coli BL21 DE3
T5 sequence (Q9HUT5 whole entry Y249A): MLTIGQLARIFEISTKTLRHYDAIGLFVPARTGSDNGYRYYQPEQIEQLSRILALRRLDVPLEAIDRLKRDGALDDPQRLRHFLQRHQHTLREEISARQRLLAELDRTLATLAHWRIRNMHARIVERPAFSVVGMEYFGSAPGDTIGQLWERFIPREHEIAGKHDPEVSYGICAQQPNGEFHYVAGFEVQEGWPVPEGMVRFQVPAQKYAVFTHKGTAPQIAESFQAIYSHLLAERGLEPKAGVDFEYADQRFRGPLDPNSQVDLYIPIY
Procedure: as §1, §2

[4] = target: Per-Arnt-Sim (PAS) domain of PA14_07500 (RmcA); parameters: method as in earlier work; settings: intrinsic fluorescence quenching method; ref 4 (Okegbe et al., 2017) of response letter; cited from earlier work

Cn1c2cccc(=O)c-2nc2ccccc21 [pyocyanin, 5-N-methyl-1-hydroxyphenazine]
up-regulation of brlR (brlR [1]): 2.3 fold
viability of tobramycin-treated cells with vs without pyocyanin (ΔbrlR cells): no significant difference
DNA bound in the presence vs absence of pyocyanin (BrlR Y183A DNA binding): 3.23 fold
brlR expression level, PAO1 vs ΔphzA1-G1/phzA2-G2 strain (brlR transcription; PAO1 at high pyocyanin production vs strain not producing phenazine): ~ 4.0 fold
brlR expression level, PAO1 vs ΔphzMSH strain (brlR transcription; PAO1 at high pyocyanin production vs strain with no pyocyanin production): ~ 5.3 fold
binding affinity relative to tobramycin (BrlR [2]; SPR KD 4.5 μM vs 0.64 mM): ~ 140 fold
Kd (BrlR [2]; SPR, immobilized BrlR, steady state, 25 °C): 4.52 µM and 4.5 µM
effect on BrlR binding to PmexA and PmexE [3]: enhanced
effect of c-di-GMP and pyocyanin together on BrlR-DNA binding (BrlR-DNA binding (PbrlR); PbrlR, c-di-GMP, pyocyanin, and both): cooperatively enhance
DNA bound in the presence vs absence of pyocyanin (BrlR-DNA binding (PbrlR); wild-type BrlR, PbrlR): 5.47 fold
effect on BrlR-PbrlR DNA binding (in words) (BrlR-DNA binding (PbrlR); wild-type BrlR, increasing concentrations of compound): significant increase
DNA bound in the presence vs absence of pyocyanin (BrlR Y249A DNA binding): 4.15 fold
Kd [4]: 3 µM
